Source: patent publication US20250339567A1, “COMPOUNDS WITH IMPROVED PHARMACOKINETICS FOR IMAGING AND THERAPY OF CANCER” (priority 2019, published 2025)
Starred links: 1 amine or outer side, 2 acyl side, 3 side chain; linkers in the order of their positions; H or OH if unused. Non-standard residues stand in square brackets, D forms with d. Residues, ends and D or L forms follow the SMILES beside them. *: point of attachment. DOTA = O=C(O)CN1CCN(CC(=O)O)CCN(CC(=O)*)CCN(CC(=O)O)CC1; Sta = CC(C)C[C@H](N)[C@@H](O)CC(=O)O; Bta = N[C@@H](Cc1csc2ccccc12)C(=O)O; Gly(cPent) = N[C@H](C(=O)O)C1CCCC1; Trx = NC[C@H]1CC[C@H](C(=O)O)CC1; X1 = O=C(CN1CCC(N[*:1])CC1)[*:2]; Chg = N[C@H](C(=O)O)C1CCCCC1; hSer = N[C@@H](CCO)C(=O)O; Nle = CCCC[C@H](N)C(=O)O; βAla = NCCC(=O)O; Sar = CNCC(=O)O

Assay: Plasma studies: metabolic stability in vitro in human plasma (radio RP-HPLC)
Assay type: in vitro ADME
Procedure: Metabolic stability in vitro was determined applying a procedure published by Linder et al. that was slightly modified. Immediately after labeling, human (200 μL) or murine (100 μL) plasma was added and the mixture was incubated at 37° C. for 72±2 h (or 6±0.5 h). Proteins were precipitated by treatment with ice-cold EtOH (150 μL [human], 100 μL [murine]) and ice-cold MeCN (450 μL [human], 300 μL [murine]), followed by centrifugation for 20 min at 13000 rpm. The supernatants were decanted and further analyzed using radio RP-HPLC. […]

Row | SMILES | Amount of intact tracer after incubation in human plasma for 72 ± 2 h (n = 2)
1 | CC(C)C[C@H](NC(=O)C[C@H](O)[C@H](CC(C)C)NC(=O)[C@H](Cc1c[nH]cn1)NC(=O)CNC(=O)[C@@H](NC(=O)[C@H](C)NC(=O)[C@H](Cc1csc2ccccc12)NC(=O)[C@H](CCC(N)=O)NC(=O)[C@@H](Cc1ccccc1)NC(=O)CN1CCC(NC(=O)CN2CCN(CC(=O)O)CCN(CC(=O)O)CCN(CC(=O)O)CC2)CC1)C1CCCCC1)C(N)=O [DOTA-[Bta^8, Chg^10]MJ9] ({DOTA}-[X1][dF]Q[Bta]A[Chg]GH[Sta]L-NH2) | 2.5 ± 1.0
2 | CC(C)C[C@H](NC(=O)C[C@H](O)[C@H](CC(C)C)NC(=O)[C@H](Cc1c[nH]cn1)NC(=O)CNC(=O)[C@@H](NC(=O)[C@H](C)NC(=O)[C@H](Cc1csc2ccccc12)NC(=O)[C@H](CCC(N)=O)NC(=O)[C@@H](Cc1ccccc1)NC(=O)CN1CCC(NC(=O)CN2CCN(CC(=O)O)CCN(CC(=O)O)CCN(CC(=O)O)CC2)CC1)C1CCCC1)C(N)=O [DOTA-[Bta^8, Cpg^10]MJ9] ({DOTA}-[X1][dF]Q[Bta]A[Gly(cPent)]GH[Sta]L-NH2) | 2.2 ± 0.5
3 | CC(C)C[C@H](NC(=O)C[C@H](O)[C@H](CC(C)C)NC(=O)[C@H](Cc1c[nH]cn1)NC(=O)CN(C)C(=O)[C@@H](NC(=O)[C@H](C)NC(=O)[C@H](Cc1csc2ccccc12)NC(=O)[C@H](CCC(N)=O)NC(=O)[C@@H](Cc1ccccc1)NC(=O)CN1CCC(NC(=O)CN2CCN(CC(=O)O)CCN(CC(=O)O)CCN(CC(=O)O)CC2)CC1)C(C)C)C(N)=O [DOTA-[Bta^8, N—Me-Gly^11]MJ9] ({DOTA}-[X1][dF]Q[Bta]AV[Sar]H[Sta]L-NH2) | 3.0 ± 0.2
4 | CC(C)C[C@H](NC(=O)C[C@H](O)[C@H](CC(C)C)NC(=O)[C@H](Cc1c[nH]cn1)NC(=O)CNC(=O)[C@@H](NC(=O)[C@H](CO)NC(=O)[C@H](Cc1csc2ccccc12)NC(=O)[C@H](CCC(N)=O)NC(=O)[C@@H](Cc1ccccc1)NC(=O)CN1CCC(NC(=O)CN2CCN(CC(=O)O)CCN(CC(=O)O)CCN(CC(=O)O)CC2)CC1)C(C)C)C(N)=O [DOTA-[Bta^8, Ser^9]MJ9] ({DOTA}-[X1][dF]Q[Bta]SVGH[Sta]L-NH2) | 1.5 ± 0.2
5 | CCCC[C@H](NC(=O)[C@H](Cc1ccccc1)NC(=O)[C@H](Cc1c[nH]cn1)NC(=O)CCNC(=O)[C@@H](NC(=O)[C@H](C)NC(=O)[C@H](Cc1csc2ccccc12)NC(=O)[C@H](CCC(N)=O)NC(=O)[C@@H](Cc1ccccc1)NC(=O)CN1CCN(CC(=O)O)CCN(CC(=O)O)CCN(CC(=O)O)CC1)C(C)C)C(N)=O [DOTA-[Bta^8]UL] ({DOTA}-[dF]Q[Bta]AV[βAla]HF[Nle]-NH2) | 0 ± 0
6 | CC(C)C[C@H](NC(=O)C[C@H](O)[C@H](CC(C)C)NC(=O)[C@H](Cc1c[nH]cn1)NC(=O)CNC(=O)[C@@H](NC(=O)[C@H](C)NC(=O)[C@H](Cc1c[nH]c2ccccc12)NC(=O)[C@H](CCC(N)=O)NC(=O)[C@@H](Cc1ccccc1)NC(=O)CN1CCC(NC(=O)CN2CCN(CC(=O)O)CCN(CC(=O)O)CCN(CC(=O)O)CC2)CC1)C1CCCCC1)C(N)=O [DOTA-[Chg^10]MJ9] ({DOTA}-[X1][dF]QWA[Chg]GH[Sta]L-NH2) | 8.4 ± 0.9
7 | CC(C)C[C@H](NC(=O)C[C@H](O)[C@H](CC(C)C)NC(=O)[C@H](Cc1c[nH]cn1)NC(=O)CNC(=O)[C@@H](NC(=O)[C@H](C)NC(=O)[C@H](Cc1c[nH]c2ccccc12)NC(=O)[C@H](CCO)NC(=O)[C@@H](Cc1ccccc1)NC(=O)CN1CCC(NC(=O)CN2CCN(CC(=O)O)CCN(CC(=O)O)CCN(CC(=O)O)CC2)CC1)C1CCCCC1)C(N)=O [DOTA-[Hse^7, Chg^10]MJ9] ({DOTA}-[X1][dF][hSer]WA[Chg]GH[Sta]L-NH2) | 33.4 ± 1.0
8 | CC(C)C[C@H](NC(=O)C[C@H](O)[C@H](CC(C)C)NC(=O)[C@H](Cc1c[nH]cn1)NC(=O)CN(C)C(=O)[C@@H](NC(=O)[C@H](C)NC(=O)[C@H](Cc1c[nH]c2ccccc12)NC(=O)[C@H](CCO)NC(=O)[C@@H](Cc1ccccc1)NC(=O)CN1CCC(NC(=O)CN2CCN(CC(=O)O)CCN(CC(=O)O)CCN(CC(=O)O)CC2)CC1)C(C)C)C(N)=O [DOTA-[Hse^7, N—Me-Gly^11]MJ9] ({DOTA}-[X1][dF][hSer]WAV[Sar]H[Sta]L-NH2) | 13.8 ± 0.7
9 | CC(C)C[C@H](NC(=O)C[C@H](O)[C@H](CC(C)C)NC(=O)[C@H](Cc1c[nH]cn1)NC(=O)CN(C)C(=O)[C@@H](NC(=O)[C@H](C)NC(=O)[C@H](Cc1c[nH]c2ccccc12)NC(=O)[C@H](CCC(N)=O)NC(=O)[C@@H](Cc1ccccc1)NC(=O)CN1CCC(NC(=O)CN2CCN(CC(=O)O)CCN(CC(=O)O)CCN(CC(=O)O)CC2)CC1)C(C)C)C(N)=O [DOTA-[N—Me-Gly^11]MJ9] | 6.3 ± 0.6
10 | CC(C)C[C@H](NC(=O)C[C@H](O)[C@H](CC(C)C)NC(=O)[C@H](Cc1c[nH]cn1)NC(=O)CNC(=O)[C@@H](NC(=O)[C@H](C)NC(=O)[C@H](Cc1csc2ccccc12)NC(=O)[C@H](CCC(N)=O)NC(=O)[C@@H](Cc1ccccc1)NC(=O)[C@H]1CC[C@H](CNC(=O)CN2CCN(CC(=O)O)CCN(CC(=O)O)CCN(CC(=O)O)CC2)CC1)C(C)C)C(N)=O [DOTA-[Txa^5, Bta^8]MJ9] ({DOTA-Trx}-[dF]Q[Bta]AVGH[Sta]L-NH2) | 27.1 ± 2.1
11 | CC(C)C[C@H](NC(=O)C[C@H](O)[C@H](CC(C)C)NC(=O)[C@H](Cc1c[nH]cn1)NC(=O)CNC(=O)[C@@H](NC(=O)[C@H](C)NC(=O)[C@](C)(Cc1c[nH]c2ccccc12)NC(=O)[C@H](CCC(N)=O)NC(=O)[C@@H](Cc1ccccc1)NC(=O)[C@H]1CC[C@H](CNC(=O)CN2CCN(CC(=O)O)CCN(CC(=O)O)CCN(CC(=O)O)CC2)CC1)C(C)C)C(N)=O [DOTA-[Txa^5, α-Me-Trp^8]MJ9] | 30.6 ± 0.8
12 | CC(C)C[C@H](NC(=O)C[C@H](O)[C@H](CC(C)C)NC(=O)[C@H](Cc1c[nH]cn1)NC(=O)CNC(=O)[C@@H](NC(=O)[C@H](C)NC(=O)[C@H](Cc1csc2ccccc12)NC(=O)[C@H](CCC(N)=O)NC(=O)[C@@H](CCCNC(=N)N)NC(=O)CN1CCC(NC(=O)CN2CCN(CC(=O)O)CCN(CC(=O)O)CCN(CC(=O)O)CC2)CC1)C(C)C)C(N)=O [DOTA-[arg^6, Bta^8]MJ9] ({DOTA}-[X1][dR]Q[Bta]AVGH[Sta]L-NH2) | 6.6 ± 2.0

Results, then the compound that gave them:

Row | Amount of intact tracer after incubation in human plasma for 72 ± 2 h (n = 2) | SMILES
13 | 25.3 ± 1.4 | CC(C)C[C@H](NC(=O)C[C@H](O)[C@H](CC(C)C)NC(=O)[C@H](Cc1c[nH]cn1)NC(=O)CNC(=O)[C@@H](NC(=O)[C@H](C)NC(=O)[C@H](Cc1c[nH]c2ccccc12)NC(=O)[C@H](CCC(N)=O)NC(=O)[C@@H](Cc1ccccc1)NC(=O)CN1CCC(NC(=O)CN2CCN(CC(=O)O)CCN(CC(=O)O)CCN(CC(=O)O)CC2)CC1)C1CCCC1)C(N)=O [DOTA-[Cpg^10]MJ9] ({DOTA}-[X1][dF]QWA[Gly(cPent)]GH[Sta]L-NH2)
14 | 28.1 ± 2.4 | CC(C)C[C@H](NC(=O)C[C@H](O)[C@H](CC(C)C)NC(=O)[C@H](Cc1c[nH]cn1)NC(=O)CNC(=O)[C@@H](NC(=O)[C@H](C)NC(=O)[C@H](Cc1c[nH]c2ccccc12)NC(=O)[C@H](CCO)NC(=O)[C@@H](Cc1ccccc1)NC(=O)CN1CCC(NC(=O)CN2CCN(CC(=O)O)CCN(CC(=O)O)CCN(CC(=O)O)CC2)CC1)C1CCCC1)C(N)=O [DOTA-[Hse^7, Cpg^10]MJ9] ({DOTA}-[X1][dF][hSer]WA[Gly(cPent)]GH[Sta]L-NH2)
15 | 14.5 ± 0.8 | CC(C)C[C@H](NC(=O)C[C@H](O)[C@H](CC(C)C)NC(=O)[C@H](Cc1c[nH]cn1)NC(=O)CNC(=O)[C@@H](NC(=O)[C@H](CO)NC(=O)[C@H](Cc1c[nH]c2ccccc12)NC(=O)[C@H](CCO)NC(=O)[C@@H](Cc1ccccc1)NC(=O)CN1CCC(NC(=O)CN2CCN(CC(=O)O)CCN(CC(=O)O)CCN(CC(=O)O)CC2)CC1)C(C)C)C(N)=O [DOTA-[Hse^7, Ser^9]MJ9] ({DOTA}-[X1][dF][hSer]WSVGH[Sta]L-NH2)
16 | 0.9 ± 0.9 | CCCC[C@H](NC(=O)[C@H](Cc1ccccc1)NC(=O)[C@H](Cc1c[nH]cn1)NC(=O)CCNC(=O)[C@@H](NC(=O)[C@H](C)NC(=O)[C@H](Cc1c[nH]c2ccccc12)NC(=O)[C@H](CCO)NC(=O)[C@@H](Cc1ccccc1)NC(=O)CN1CCN(CC(=O)O)CCN(CC(=O)O)CCN(CC(=O)O)CC1)C(C)C)C(N)=O [DOTA-[Hse^7]UL] ({DOTA}-[dF][hSer]WAV[βAla]HF[Nle]-NH2)
17 | 9.8 ± 4.3 | CC(C)C[C@H](NC(=O)C[C@H](O)[C@H](CC(C)C)NC(=O)[C@H](Cc1c[nH]cn1)NC(=O)CNC(=O)[C@@H](NC(=O)[C@H](CO)NC(=O)[C@H](Cc1c[nH]c2ccccc12)NC(=O)[C@H](CCC(N)=O)NC(=O)[C@@H](Cc1ccccc1)NC(=O)CN1CCC(NC(=O)CN2CCN(CC(=O)O)CCN(CC(=O)O)CCN(CC(=O)O)CC2)CC1)C(C)C)C(N)=O [DOTA-[Ser^9]MJ9] ({DOTA}-[X1][dF]QWSVGH[Sta]L-NH2)
18 | 26.7 ± 1.3 | CC(C)C[C@H](NC(=O)C[C@H](O)[C@H](CC(C)C)NC(=O)[C@H](Cc1c[nH]cn1)NC(=O)CNC(=O)[C@@H](NC(=O)[C@H](C)NC(=O)[C@H](Cc1c[nH]c2ccccc12)NC(=O)[C@H](CCO)NC(=O)[C@@H](Cc1ccccc1)NC(=O)[C@H]1CC[C@H](CNC(=O)CN2CCN(CC(=O)O)CCN(CC(=O)O)CCN(CC(=O)O)CC2)CC1)C(C)C)C(N)=O [DOTA-[Txa^5, Hse^7]MJ9] ({DOTA-Trx}-[dF][hSer]WAVGH[Sta]L-NH2)
19 | 24.8 ± 0.3 | CC(C)C[C@H](NC(=O)C[C@H](O)[C@H](CC(C)C)NC(=O)[C@H](Cc1c[nH]cn1)NC(=O)CNC(=O)[C@@H](NC(=O)[C@H](C)NC(=O)[C@H](Cc1c[nH]c2ccccc12)NC(=O)[C@H](CCC(N)=O)NC(=O)[C@@H](Cc1ccccc1)NC(=O)[C@H]1CC[C@H](CNC(=O)CN2CCN(CC(=O)O)CCN(CC(=O)O)CCN(CC(=O)O)CC2)CC1)C(C)C)C(N)=O [DOTA-[Txa^5]MJ9]
